Results from patent US20240200050A1, “AMINOACYL TRANSFER RNA SYNTHETASES” (Trustees of Tufts College, priority 2021, published 2024).

Columns and labels:
[1] = test system: ncAA-substituted synthetic antibody clones; experiment: UV-mediated photocrosslinking of ncAA-substituted synthetic antibody clones on the yeast surface; settings: identical sets of crosslinking conditions
Method: (§1) Experiments were undertaken to expand the tools available for genetically encoding crosslinkable ncAAs in proteins produced in yeast. As described in the above examples, a large number of aminoacyl-tRNA synthetase (aaRS) variants were discovered that support translation with a broad set of ncAAs. Here, several of these aaRSs were evaluated alongside previously described variants to evaluate their support of protein translation with the ncAAs O-(2-bromoethyl)tyrosine (Obey), 4-benzoyl-1-phenylalanine (Bpa), or N^6-((2-(3-methyl-3H-diazirin-3-yl)ethoxy)carbonyl)-L-lysine (Photo-Lysine, Phk) (FIG. 12A). Although none of these ncAAs were used in any of the screening efforts described in the above Examples. several variants from the screens were nevertheless identified that supported translation at moderate to high efficiencies with Obey and Phk. […] The potential utility of these spontaneously crosslinkable and photocrosslinkable ncAAs was also investigated. […] The display and binding activities of these peptides were confirmed. […] For the cases of Phk and Bpa, photocrosslinkability on the yeast surface was investigated utilizing ncAA-substituted synthetic antibody clones and alongside AzF-substituted clones known to undergo UV-mediated crosslinking.

antigen = experiment: Antigen binding of yeast-displayed synthetic antibody fragments substituted with ncAAs; settings: ncAA incorporated into yeast-displayed synthetic antibody fragments
Method: as §1

streptavidin = streptavidin (Streptomyces avidinii, UniProt P22629); experiment: Display and binding of ncAA-substituted anti-streptavidin peptides on the yeast surface
Method: as §1

Chain of streptavidin (P22629 25-183, species assumed): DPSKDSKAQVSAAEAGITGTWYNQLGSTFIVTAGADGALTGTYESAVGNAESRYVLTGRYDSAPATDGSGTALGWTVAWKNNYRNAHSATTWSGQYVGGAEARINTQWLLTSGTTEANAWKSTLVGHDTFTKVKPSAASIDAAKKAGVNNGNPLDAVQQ

[N-]=[N+]=Nc1ccc(C[C@H](N)C(=O)O)cc1 [AzF, p-azido-L-phenylalanine]
crosslinking on the yeast surface (in words) [1]: clear evidence

N[C@@H](Cc1ccc(C(=O)c2ccccc2)cc1)C(=O)O [Bpa, 4-benzoyl-1-phenylalanine]
crosslinking on the yeast surface (in words) [1]: clear evidence
antigen binding of ncAA-substituted constructs (in words) (antigen): retained antigen binding

C#CCOc1ccc(C[C@H](N)C(=O)O)cc1 [OPG, p-propargyloxy-L-phenylalanine]
display and binding activities of ncAA-substituted peptides (in words) (streptavidin): confirmed

N[C@@H](Cc1ccc(OCCBr)cc1)C(=O)O [Obey, O-(2-Bromoethyl)-L-tyrosine]
antigen binding of ncAA-substituted constructs (in words) (antigen): retained antigen binding
display and binding activities of ncAA-substituted peptides (in words) (streptavidin): confirmed

CC1(CCOC(=O)NCCCC[C@H](N)C(=O)O)N=N1 [Phk, N^6-((2-(3-methyl-3H-diazirin-3-yl)ethoxy)carbonyl)-L-lysine]
crosslinking on the yeast surface (in words) [1]: did not appear to undergo detectable crosslinking
antigen binding of ncAA-substituted constructs (in words) (antigen): retained antigen binding
